Laboratory results as given in patent publication US5770591A, “Bis-platinum complexes as chemotherapeutic agents” (The University of Vermont and State Agricultural College, priority 1994, dated 1998).
Read-outs that look alike come from different tables or passages of the source.

How the values were obtained:
[1] = system: L-1210/DDP murine leukemia cells; experiment: In vitro cytotoxic activity (ID50), L-1210/DDP (resistant to cisplatin); format: cell-based; details: Table II; solvent H2O, 10% DMSO or DMF per complex
[2] = system: L-1210/dach murine leukemia cells; experiment: In vitro cytotoxic activity (ID50), L-1210/dach; format: cell-based; details: Table II; solvent H2O, 10% DMSO or DMF per complex
Description: The tests were carried out in vitro according to the procedures outlined by M. P. Hacker et al in Cancer Research, 1985, 45, 4748.

[3] = system: L-1210/0 murine leukemia cells; experiment: In vitro cytotoxic activity (ID50, 50% inhibition of cell growth), L-1210/0; format: cell-based; details: Table II; solvent H2O, 10% DMSO or DMF per complex
tumors = details: cited from earlier work
DNA = details: background, cited from earlier work
[4] = system: L-1210/0 murine leukemia cells; experiment: In vitro cytotoxic activity (ID50, 50% inhibition of cell growth), L-1210/0; format: cell-based; details: Table III; dissolved in 10% DMSO; read-out: ID50 L-1210/O
Text: (§1) where py=pyridine; quin=quinoline; isoquin=isoquinoline; Meim=methylimidazole. […] Complexes were all dissolved in 10% DMSO.

[5] = system: L-1210/DDP murine leukemia cells; experiment: In vitro cytotoxic activity (ID50), L-1210/DDP (resistant to cisplatin); format: cell-based; details: Table III; dissolved in 10% DMSO
Text: as §1

[6] = system: L-1210 murine leukemia cell lines
Description: The biological assays were performed as previously described by method of Hacker et al. Cancer Research, 1985, 45, 4748. Complexes were all dissolved in 10% DMSO.

[7] = treatment of patients; cited from earlier work

Compound | IC50 [1] [nM] | IC50 [2] [nM] | IC50 [3] [nM] | IC50 [4] [nM] | IC50 [5] [nM] | other results
N.N.NCCCCN.[Cl][Pt][Cl].[Cl][Pt][Cl] [BisPt4, [{cis-PtCl2 (NH3)}2 (H2 N(CH2)4 NH2)]] | 2190 | 336 | 280 |  |  | 
N.N.N.[Cl][Pt+] [[Pt(NH3)3 Cl]^+] |  |  |  |  |  | Antitumor activity / cytotoxic effect (tumors; background): no cytotoxic effect; Antitumor activity / cytotoxic effect (tumors; background, listed as [(Pt(NH3)3 Cl]^+)): do not exhibit antitumor activity; DNA binding (DNA): bind avidly to the DNA molecule; Formation of 1,2-intrastrand crosslink (DNA): cannot form the 1,2-intrastrand crosslink; DNA binding (DNA; listed as [(Pt(NH3)3 Cl]^+)): do bind to DNA
N.N.NCCCCN.O=C1CC(=O)[O][Pt][O]1.O=C1CC(=O)[O][Pt][O]1 [BisPtmal, [{cis-Pt(mal)(NH3)}2 (H2 N(CH2)4 NH2)]] | 5030 | 2550 | 930 |  |  | 
[PtCl2 (iso-quinoline)(DMSO)] [iso-quin DMSO trans] |  |  |  | 2750 | 1170 | 
N.N.N.N.NCCCCN.[Cl-].[Cl-].[Cl][Pt+].[Cl][Pt+] [Example 1, [{trans-PtCl(NH3)2}2 H2 N(CH2)4 NH2]Cl2] | 900 | 5400 | 3400 |  |  | Cytotoxic activity (in words) [6]: highly active cytotoxic agents
N.N.[Cl][Pt][Cl] [NH3 NH3 cis, cis-[PtCl2 (NH3)2]] |  |  |  | 200 | 8000 | 
[Pt(dien)Cl]Cl | > 20000 | > 20000 | > 20000 |  |  | Cytotoxic activity (in words) [6]: totally inactive; Antitumor activity / cytotoxic effect (tumors): do not exhibit antitumor activity; DNA binding (DNA): do bind to DNA
N.N.NCCCCN.[Cl][Pt][Cl].[Cl][Pt][Cl] [Example 3, [{cis-PtCl2 (NH3)}H2 N(CH2)4 NH2 {trans-PtCl2 (NH3)}]] | 3360 | 2600 | 760 |  |  | 
[PtCl2 (quinoline)(DMSO)] [quin DMSO trans] |  |  |  | 400 | 1570 | 
[Cl][Pt][Cl].c1ccncc1.c1ccncc1 [py py trans, trans-[PtCl2 (pyridine)2]] |  |  |  | 610 | 800 | Cytotoxic activity (in words) [6]: as cytotoxic as cisplatin; Cross-resistance with the parent cisplatin ([6]; Table III in vitro data): non-cross-resistant with the parent cisplatin
Cl.Cl.[Pt].c1ccncc1.c1ccncc1 [py py cis] |  |  |  | 8960 | 12500 | 
N.N.[Cl][Pt+2][Cl] [NH3 NH3 trans, trans-[PtCl2 (NH3)2]] |  |  |  | > 20000 | > 50000 | Antitumor activity / cytotoxic effect (tumors; background, listed as trans-DDP): do not exhibit antitumor activity; Antitumor activity / cytotoxic effect (tumors; background, listed as trans-[Pt(NH3)2 Cl2 ]): no cytotoxic effect; Formation of 1,2-intrastrand crosslink (DNA): cannot form the 1,2-intrastrand crosslink; DNA binding (DNA; listed as trans-DDP): do bind to DNA; DNA binding (DNA; listed as trans-[Pt(NH3)2 Cl2 ]): bind avidly to the DNA molecule
N.N.O=C([O-])C1(C(=O)[O-])CCC1.[Pt+2] [Carboplatin, [Pt(NH3)2 (CBDCA)]] |  |  |  |  |  | Antitumor activity / cytotoxic effect (tumors; background): effective against the same spectrum of carcinomas as cisplatin; Nephrotoxicity [7]: marked reduction in the nephrotoxic effects
trans-[PtCl2 (pyridine)(DMSO)] [py DMSO trans] |  |  |  | 6620 | 5670 | 
